# Reference: ChEMBL document CHEMBL1201862, “PubChem BioAssay data set” (2004)
# Activity calls are given as the source filed them. For most assays here, no stated cut-off is given here; in the data, actives have a measured EC50 and inactives only a lower limit.
# Assays:
# [1] = luciferase reporter signal suppression in cells – H4 neuroglioma cells, luminescence, dose response (AID 1990); assay type: functional, cell-based
# [2] = Luminescence Cell-Based Dose Response HTS to Identify Inhibitors of 5'UTR Stem-Loop Driven Prion Protein mRNA Translation in H4 Neuroglioblastoma Cells. [Related pubchem assays: 1827 (Project Summary), 1813 (Primary HTS)]; assay type: functional
# [3] = alpha-synuclein stem-loop luciferase translation blockers – H4 neuroglioma cells, luminescence, confirmation (AID 1988); assay type: functional, cell-based
# [4] = target: T1, Heat shock factor protein 1 (Mus musculus, UniProt P38532); assay: decrease of HSF1-responsive luciferase luminescence – cell-based, NIH3T3, dose retest, confirmation (AID 2382); assay type: functional;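 further: NIH3T3 fibroblasts with HSF1-driven luciferase reporter stressed by proteasome inhibitor MG132; luminescence from HSF1-driven luciferase expression after 8 hours of MG132 stress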
# T1 sequence (P38532 whole entry): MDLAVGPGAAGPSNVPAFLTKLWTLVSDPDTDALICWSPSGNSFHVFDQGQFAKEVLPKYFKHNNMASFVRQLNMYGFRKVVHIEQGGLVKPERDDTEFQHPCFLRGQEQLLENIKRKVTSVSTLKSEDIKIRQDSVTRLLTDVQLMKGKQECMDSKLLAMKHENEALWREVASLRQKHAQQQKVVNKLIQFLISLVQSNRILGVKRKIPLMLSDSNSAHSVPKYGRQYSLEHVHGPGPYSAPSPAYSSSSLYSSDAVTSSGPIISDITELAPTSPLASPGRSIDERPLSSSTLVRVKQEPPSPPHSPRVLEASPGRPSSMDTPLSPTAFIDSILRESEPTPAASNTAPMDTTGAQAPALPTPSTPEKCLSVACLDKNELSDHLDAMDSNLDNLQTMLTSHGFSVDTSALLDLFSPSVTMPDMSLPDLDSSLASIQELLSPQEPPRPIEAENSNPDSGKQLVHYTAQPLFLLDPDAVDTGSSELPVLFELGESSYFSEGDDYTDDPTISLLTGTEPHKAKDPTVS
# [5] = target: T2, Corticotropin-releasing factor receptor 2/Corticotropin-releasing factor-binding protein (Homo sapiens, UniProt P24387+Q13324); assay: Dose Response confirmation of uHTS hits for small molecule antagonists of the CRF-binding protein and CRF-R2 receptor complex.; assay type: functional; settings: read-out: IC50_Mean
# T2 sequence (Q13324 whole entry): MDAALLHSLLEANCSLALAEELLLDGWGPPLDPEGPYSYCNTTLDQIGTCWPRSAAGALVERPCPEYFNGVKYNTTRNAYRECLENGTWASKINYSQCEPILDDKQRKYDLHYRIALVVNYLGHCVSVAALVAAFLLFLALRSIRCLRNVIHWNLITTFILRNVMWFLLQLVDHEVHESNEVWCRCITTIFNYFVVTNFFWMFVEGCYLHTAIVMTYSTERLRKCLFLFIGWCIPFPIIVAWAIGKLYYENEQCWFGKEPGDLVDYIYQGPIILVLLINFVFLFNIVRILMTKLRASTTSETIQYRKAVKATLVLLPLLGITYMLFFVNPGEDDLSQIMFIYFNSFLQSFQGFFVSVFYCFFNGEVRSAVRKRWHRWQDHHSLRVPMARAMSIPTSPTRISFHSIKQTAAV
# T2 sequence (P24387 whole entry): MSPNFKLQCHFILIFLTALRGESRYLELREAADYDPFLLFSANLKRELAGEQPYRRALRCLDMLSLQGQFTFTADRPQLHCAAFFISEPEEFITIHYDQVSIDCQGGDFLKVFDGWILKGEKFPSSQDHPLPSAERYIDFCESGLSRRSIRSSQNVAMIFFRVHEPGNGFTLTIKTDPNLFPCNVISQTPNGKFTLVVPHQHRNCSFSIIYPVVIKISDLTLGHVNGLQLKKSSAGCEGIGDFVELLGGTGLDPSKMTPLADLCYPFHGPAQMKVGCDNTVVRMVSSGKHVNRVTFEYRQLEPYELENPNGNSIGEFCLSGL
# [6] = target: T2, Corticotropin-releasing factor receptor 2/Corticotropin-releasing factor-binding protein; assay: activators of CRF receptor 2 with binding protein – uHTS hits, confirmation (AID 602473); assay type: functional; settings: read-out: EC50_Mean
# [7] = P. falciparum Dd2 growth inhibitors, dose response, SYBR Green, cherry-picked samples (AID 1159567); assay type: functional, cell-based
# [8] = target: Glyceraldehyde-3-phosphate dehydrogenase (Homo sapiens, UniProt P04406)
# [9] = NIH-3T3 fibroblast cytotoxicity, dose response, cytotoxicity control, cell-based, fluorescence, Alamar Blue, secondary assay (AID 2327); assay type: functional;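 further: NIH-3T3 mouse fibroblasts cultured with fluconazole at 8 µg/mL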
# [10] = system: Streptococcus sp. 'group A'; assay: Streptococcus pyogenes SK(-)GAS viability under kanamycin – luminescence, BacTiterGlo, confirmation, counter-screen for streptokinase expression inhibitor project, dose response (AID 1900); assay type: functional, organism-based
# Streptokinase A = target: T3, Streptokinase A (Streptococcus pyogenes serotype M1, UniProt P10520); assay: viability-normalized secreted streptokinase activity reduction – plasminogen activation absorbance, OD405, dose response (AID 1914); assay type: functional, Streptococcus pyogenes M1 GAS;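 further: secreted streptokinase activity via plasminogen activation per viability signal from cell pellet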
# T3 sequence (P10520 whole entry): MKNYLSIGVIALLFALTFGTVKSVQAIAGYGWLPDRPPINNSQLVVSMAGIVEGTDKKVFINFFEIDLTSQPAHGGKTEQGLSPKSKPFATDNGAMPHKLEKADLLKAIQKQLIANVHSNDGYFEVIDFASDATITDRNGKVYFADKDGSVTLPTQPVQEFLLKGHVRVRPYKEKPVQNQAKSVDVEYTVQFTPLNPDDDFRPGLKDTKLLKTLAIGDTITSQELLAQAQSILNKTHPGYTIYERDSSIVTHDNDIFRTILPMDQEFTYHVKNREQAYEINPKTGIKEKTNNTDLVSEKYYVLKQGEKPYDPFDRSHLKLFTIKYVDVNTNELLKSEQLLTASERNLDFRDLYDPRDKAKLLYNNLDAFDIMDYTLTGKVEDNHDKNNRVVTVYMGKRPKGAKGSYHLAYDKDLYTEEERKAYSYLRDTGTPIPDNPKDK
# [11] = fluconazole-exposed Candida albicans growth modulators – fluorescence, retest, confirmation (AID 2467); assay type: functional, cell-based
# Streptococcus = assay: GAS UMAA2166 growth inhibition – luminescence, BacTiterGlo, counter-screen for streptokinase expression inhibitor project, dose response (AID 1915); assay type: functional, organism-based;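 further: potency for reduction of bacterial viability or growth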
# Paired box protein Pax-8 = Paired box protein Pax-8 (Homo sapiens, UniProt Q06710); assay: PAX8 transcriptional activity inhibition in RMG-I – RMG-I cells, luciferase, cherry-pick, dose response (AID 687027); assay type: functional, cell-based;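 further: luciferase reporter driven by Pax8 target thyroperoxidase promoter measured by SteadyGlo luminescence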
# P388/ADR = assay: cells; assay type: functional; settings: Mus musculus
# SN12K1 = assay: cells; assay type: functional; settings: Homo sapiens
# [12] = Luminescence Cell-Based Dose Response HTS to Identify Activators of Luciferase Translation or Activity in H4 […] Cells. [Related pubchem assays: 1829 (Project Summary), 1814 (Primary HTS)]; assay type: functional
# H4 = assay: Luminescence Cell-Based Dose Response HTS to Identify Activators of 5'UTR Stem-Loop Driven Prion Protein mRNA Translation in H4 Neuroglioblastoma Cells. [Related pubchem assays: 1829 (Project Summary), 1814 (Primary HTS)]; assay type: functional; settings: Homo sapiens
# [13] = Trypanosoma cruzi growth suppression in host cells – NIH3T3 host cells, beta-gal luminescence, confirmation (AID 2044); assay type: functional, cell-based;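 further: intracellular parasites grown in NIH/3T3 mouse fibroblasts as host cells; luminescent beta-galactosidase reporter signal from transgenic T. cruzi replicating inside host cells; inhibitors lower the luminescence signal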
# [14] = NIH3T3 cell viability loss – ATP luminescence, mouse fibroblasts, counter-screen, dose response (AID 2010); assay type: functional, cell-based;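 further: cells exposed to compound for about 90 hours before reading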
# Chain of Paired box protein Pax-8 (Q06710 whole entry): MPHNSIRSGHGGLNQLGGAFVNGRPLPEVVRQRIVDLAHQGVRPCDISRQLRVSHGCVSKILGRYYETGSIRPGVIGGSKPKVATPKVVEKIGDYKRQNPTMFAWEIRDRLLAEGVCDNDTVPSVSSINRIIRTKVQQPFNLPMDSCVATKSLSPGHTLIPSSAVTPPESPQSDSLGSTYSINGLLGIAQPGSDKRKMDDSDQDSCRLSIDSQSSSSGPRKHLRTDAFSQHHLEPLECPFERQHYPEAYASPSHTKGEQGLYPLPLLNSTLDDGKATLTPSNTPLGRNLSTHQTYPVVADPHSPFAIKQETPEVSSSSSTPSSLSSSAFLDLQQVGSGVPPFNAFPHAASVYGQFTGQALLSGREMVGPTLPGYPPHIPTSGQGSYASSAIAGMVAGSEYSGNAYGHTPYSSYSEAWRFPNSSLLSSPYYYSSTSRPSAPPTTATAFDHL
# Chain of Glyceraldehyde-3-phosphate dehydrogenase (P04406 whole entry): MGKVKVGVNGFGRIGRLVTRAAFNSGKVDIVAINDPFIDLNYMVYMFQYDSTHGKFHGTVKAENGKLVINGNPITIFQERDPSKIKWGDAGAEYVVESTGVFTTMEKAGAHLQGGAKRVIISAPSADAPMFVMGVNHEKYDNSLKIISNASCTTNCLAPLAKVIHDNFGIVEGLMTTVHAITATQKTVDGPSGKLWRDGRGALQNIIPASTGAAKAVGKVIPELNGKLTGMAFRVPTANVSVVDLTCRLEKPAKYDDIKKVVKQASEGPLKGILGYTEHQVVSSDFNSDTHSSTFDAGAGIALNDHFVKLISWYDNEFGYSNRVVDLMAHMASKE
compound,measurement,setting,value
COc1cccc(C2Nc3ccccc3C(=O)N2Cc2ccccc2)c1 (centres undefined),EC50,[1],> 120 µM (not active)
same,EC50,[2],> 120 µM (not active)
same,EC50,[3],> 120 µM (not active)
CNC(=S)N(CCc1c(C)[nH]c2ccc(C)cc12)Cc1cc(OC)c(OC)c(OC)c1,EC50,[4],> 195 µM (not active)
C#CCSc1nc(C)cc(C(=O)OCC)c1C#N,IC50,[5],> 47.1 µM (inactive)
same,EC50,[6],> 53 µM (inactive)
COc1ccc(-n2nc(C)cc2N)cc1,EC50,[4],> 195 µM (not active)
O=S(=O)(Cc1ccccc1)N1[C@H](CO)[C@@H](c2ccccc2)C12CN(CCC(F)(F)F)C2,AC50,[7],5.09 µM (active)
O=C(NCc1csc(-c2cccs2)n1)c1ccccc1,IC50,[5],> 47.1 µM (inactive)
same,EC50,[6],> 53 µM (inactive)
O=C(Cc1ccsc1)Nc1ccc(S(=O)(=O)C(F)F)cc1,EC50,[4],> 195 µM (not active)
N#Cc1ccc(CSC2=NCCN2)cc1,IC50,[5],> 47.1 µM (inactive)
same,EC50,[6],> 53 µM (inactive)
O=C(Nc1cc2nn(-c3ccccc3)nc2cc1Cl)c1ccc([N+](=O)[O-])o1,IC50,[8],> 100 µM (not active)
CCOC(=O)C1CCN(C(=O)c2ccc3c(=O)n4nc(Nc5cc(C)ccc5C)sc4nc3c2)CC1,EC50,[9],> 150 µM (inactive)
same,EC50,[10],9.44 µM (active)
same,EC50,Streptokinase A,> 150 µM (not active)
same,EC50,[11],2.55 µM (active)
same,EC50,Streptococcus,37.4 µM (active)
C=CCOc1ccn(C)c(=O)n1,EC50,[4],> 195 µM (not active)
Cc1ccc(S(=O)(=O)Nc2ccc3c(c2)C(=O)N([C@H](C)CO)C[C@H](C)[C@H](CN(C)C(=O)c2ccccc2)OCCCC[C@H](C)O3)cc1,AC50,Paired box protein Pax-8,19.4 µM (active)
CCOc1ccc(CNC(=O)c2ccc3nc(N4CCOCC4)sc3c2)cc1,EC50,[4],> 195 µM (not active)
COc1cc(-c2ccc3cc(OC)c(OC)c(OC)c3c2)cc(OC)c1OC,IC50,[5],> 47.1 µM (inactive)
same,EC50,[6],> 53 µM (inactive)
COc1cc2ccccc2cc1C(=O)N/N=C/c1ccc2c(c1)OCO2,IC50,[5],> 47.1 µM (inactive)
same,EC50,[6],> 53 µM (inactive)
COc1ccc(F)cc1-c1cc(NC=O)c2ncc(-c3cc(OC)c(OC)c(OC)c3)n2c1,AC50,Paired box protein Pax-8,3.49 µM (active)
N#C[C@@H]1[C@@H](c2ccccc2-c2ccccc2F)[C@@H](CO)N1C(=O)C1CCOCC1,AC50,[7],24.2 µM (active)
O=C(NCCCl)O/N=C/c1cccnc1,GI50,P388/ADR,52.5 µM (inactive)
same,GI50,SN12K1,> 100 µM (inactive)
COc1cccc(N2C(=O)C(Cl)=C(N3CCN[C@H](C)C3)C2=O)c1,IC50,[8],> 50 µM (inconclusive)
CC(=O)N1N=C(c2cccc([N+](=O)[O-])c2)CC1c1ccc(Br)cc1 (centres undefined),IC50,[8],> 100 µM (not active)
CC(C)[C@H](NC(=O)OC(C)(C)C)C(=O)N/N=C/c1ccc2nccnc2c1,IC50,[5],> 47.1 µM (inactive)
same,EC50,[6],> 53 µM (inactive)
O=c1cccc2n1Cc1cc3ccccc3nc1-2,EC50,[12],38.3 µM (active)
same,EC50,H4,37.6 µM (active)
COCCNC(=O)C(OC(=O)c1cccs1)c1ccccc1 (centres undefined),EC50,[4],> 195 µM (not active)
Cc1cc2c(cc(C(=O)OCC(=O)NCc3ccco3)n2C)s1,EC50,[9],22.4 µM (active)
same,EC50,[11],> 38 µM (not active)
O=C(NCc1ccccn1)c1ccc(Cn2c(=S)[nH]c3ccc(Br)cc3c2=O)cc1,EC50,[1],> 120 µM (not active)
same,EC50,[2],> 120 µM (not active)
same,EC50,[3],> 120 µM (not active)
CN1CCc2c(sc3c2C(=O)NC(c2ccc(-c4ccc(Cl)cc4)o2)N3)C1 (centres undefined),EC50,[4],> 195 µM (not active)
C[C@H]1CN([C@@H](C)CO)C(=O)c2ccccc2-c2ccccc2CO[C@H]1CN(C)Cc1ccc(Oc2ccccc2)cc1,AC50,[7],4.26 µM (active)
CC(C)C(=O)Nc1cccc(C(=O)Nc2ccccc2C(=O)O)c1,EC50,[1],47.8 µM (active)
same,EC50,[2],> 120 µM (not active)
same,EC50,[3],> 120 µM (not active)
Cc1cccc2c1Sc1ccc(Cl)cc1CC2N1CCNCC1 (centres undefined),EC50,[1],> 120 µM (not active)
same,EC50,[2],116 µM (active)
same,EC50,[3],11.7 µM (active)
same,EC50,[13],3.13 µM (active)
same,EC50,[14],12.9 µM (active)
CC(=O)C1=C(O)C(=O)N(Cc2cccnc2)C1c1ccc(O)cc1 (centres undefined),EC50,[4],> 195 µM (not active)
COc1cccc(N2CCN(C3=C(Cl)C(=O)N(c4ccnc(Cl)c4)C3=O)CC2)c1,IC50,[8],> 50 µM (inconclusive)
Cc1nnc(N/N=C/c2cc(C)n(-c3ccc(F)cc3)c2C)n1N,EC50,[4],29.7 µM (active)
CO[C@@H]1CN(C)C(=O)c2cc(NC(=O)Nc3ccc(C(F)(F)F)cc3)ccc2OC[C@@H](C)NC[C@@H]1C,AC50,[7],5.92 µM (active)
COc1cc(C(=O)NCC(c2cccs2)N2CCOCC2)ccc1OCc1ccc(Cl)cc1 (centres undefined),AC50,Paired box protein Pax-8,22 µM (active)
Cc1nc(NC(=O)C2CC2)sc1C(=O)Nc1ccccc1Cl,EC50,[12],11.6 µM (active)
same,EC50,H4,9.56 µM (active)
CCc1cc[n+](CC(=O)Nc2ccc(Cl)cc2Cl)cc1,EC50,[4],> 195 µM (not active)
Cc1cc(C(=O)CN2CCC(C)CC2)c(C)n1-c1ccccc1F,EC50,[4],< 0.16 µM (active)
same,EC50,[13],1.18 µM (active)
same,EC50,[14],> 60 µM (not active)
Cc1cc(=O)oc2cc(OCC(=O)Nc3ccc(O)c(C(=O)O)c3)ccc12,IC50,[8],> 100 µM (not active)
CN(C)CC(=O)N1[C@H](CO)[C@H](c2ccc(C#CC3CCCCC3)cc2)[C@@H]1C#N,AC50,[7],8.31 µM (active)
O=C(c1cnccn1)N1CC(=O)N2[C@@H](CO)[C@H](c3ccc(C#CCc4ccccc4)cc3)[C@@H]2C1,AC50,[7],5.99 µM (active)
COc1ccc(S(=O)(=O)Nc2ccc3c(c2)C(=O)N([C@@H](C)CO)C[C@H](C)[C@H](CN(C)Cc2ccc(C(F)(F)F)cc2)OCCCC[C@@H](C)O3)cc1,AC50,Paired box protein Pax-8,7.68 µM (active)
C[C@H](CO)N1C[C@H](C)[C@H](CN(C)C(=O)Nc2ccc(N3CCCCC3)cc2)OCc2cnnn2CCCC1=O,AC50,[7],> 39 µM (inactive)
CN(c1ccccc1)c1ncccn1,EC50,[4],> 195 µM (not active)
